# US20250163051A1, “PYRIMIDO AROMATIC RING COMPOUND AND USE THEREOF IN DRUG” (SUNSHINE LAKE PHARMA CO., LTD., priority 2022, published 2025)
# Where two headings read alike, the source gives them in different places.
# Assays:
# CYP2C19 = target: T1, CYP2C19 (Homo sapiens, UniProt P33261); assay: Inhibition of human liver microsomal CYP2C19; assay type: in vitro ADME; details: human liver microsomes, 10 μM test substance; read-out: Relative inhibition rate (%) CYP2C19
# T1 construct: from tissue; host or cells: human liver microsomes
# T1 sequence (P33261 whole entry): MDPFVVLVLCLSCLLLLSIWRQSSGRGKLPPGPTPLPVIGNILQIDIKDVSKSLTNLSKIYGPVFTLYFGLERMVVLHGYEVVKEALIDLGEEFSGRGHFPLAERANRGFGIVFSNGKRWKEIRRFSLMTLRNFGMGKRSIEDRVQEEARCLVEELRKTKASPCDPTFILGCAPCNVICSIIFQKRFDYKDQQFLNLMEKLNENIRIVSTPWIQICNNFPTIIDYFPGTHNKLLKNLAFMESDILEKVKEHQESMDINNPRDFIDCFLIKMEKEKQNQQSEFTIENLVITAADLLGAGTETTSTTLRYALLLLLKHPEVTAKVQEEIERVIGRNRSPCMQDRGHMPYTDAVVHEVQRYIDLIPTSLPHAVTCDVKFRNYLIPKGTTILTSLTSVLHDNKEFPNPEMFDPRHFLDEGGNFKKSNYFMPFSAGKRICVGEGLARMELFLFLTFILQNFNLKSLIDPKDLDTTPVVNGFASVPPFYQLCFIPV
# Protocol: (§1) Experimental purpose: The inhibitory effects of the test compounds on the major metabolizing enzymes CYP1A2, CYP2C19, CYP2D6 and CYP3A4 in microsomes were evaluated using the human liver microsomal system. Experimental method: The test substance was incubated with a suspension of human liver microsomes containing cytochrome P450 enzymes CYP1A2, CYP2C19, CYP2D6 and CYP3A4 at a concentration of 10 μM in the final incubation system. The known substrates were metabolized by the corresponding single enzymes to generate specific metabolites, and the metabolites were determined by UPLC-MS/MS method. The relative inhibition rate (%) was calculated by the percentage reduction of metabolite production by the test compound and solvent DMSO in the same time period. N is the concentration value of the probe substrate metabolite and it is assumed that the […] with or without inhibitor at 0 min is 0. N+inh is the metabolite concentration in the group with inhibitor, and Nveh is the metabolite concentration in the group without inhibitor. The results of the inhibition test of the compounds of the present invention on human liver microsomal CYP enzymes are shown in Table C.
# CYP3A4 [1] = assay: Induction of CYP3A4 in frozen human hepatocytes; assay type: in vitro ADME; details: 72 h induction, concentration and readout not stated; for CYP3A4 Induction percentage relative to positive control (%): positive control Rifampicin
# Protocol: (§2) Experimental purpose: Using frozen human hepatocytes as the test system, the induction effects of the test substances on CYP1A2, CYP2B6 and CYP3A4 were evaluated from two aspects of enzyme activity and mRNA level.
# (§3) Experimental method: 24 hours after cell plating, induction was started by adding medium containing the test compound (test concentrations were 10, 1, and 0.1 μM), and fresh drug-containing medium was replaced every 24 hours. After 72 hours of induction, the medium was replaced with medium containing CYP1A2, CYP2B6, and CYP3A4 specific substrates for 30 minutes of incubation. 100 μL was taken for treatment, and the labeled metabolites of the substrates were detected to evaluate the enzyme activity level. Finally, the cells were lysed and reverse transcribed, and the expression levels of CYP1A2, CYP2B6 and CYP3A4 genes in the cells were evaluated by real-time quantitative PCR.
# (§4) The induction fold of the test compound compared with the blank control and the induction percentage of the test compound compared with the positive control were used as the basis for evaluating the induction potential of the test compound. Among them, the positive control for CYP1A2 is Omeprazole; the positive control for CYP2B6 is Phenobarbital; the positive control for CYP3A4 is Rifampicin.
# [2] = Cell toxicity (Celltiter-Glo) in HEK-Blue hTLR8 cells; details: human
# CYP3A4 [3] = target: T2, CYP3A4 (Homo sapiens, UniProt P08684); assay: Inhibition of human liver microsomal CYP3A4; assay type: in vitro ADME; details: human liver microsomes, 10 μM test substance
# T2 construct: from tissue; host or cells: human liver microsomes
# T2 sequence (P08684 whole entry): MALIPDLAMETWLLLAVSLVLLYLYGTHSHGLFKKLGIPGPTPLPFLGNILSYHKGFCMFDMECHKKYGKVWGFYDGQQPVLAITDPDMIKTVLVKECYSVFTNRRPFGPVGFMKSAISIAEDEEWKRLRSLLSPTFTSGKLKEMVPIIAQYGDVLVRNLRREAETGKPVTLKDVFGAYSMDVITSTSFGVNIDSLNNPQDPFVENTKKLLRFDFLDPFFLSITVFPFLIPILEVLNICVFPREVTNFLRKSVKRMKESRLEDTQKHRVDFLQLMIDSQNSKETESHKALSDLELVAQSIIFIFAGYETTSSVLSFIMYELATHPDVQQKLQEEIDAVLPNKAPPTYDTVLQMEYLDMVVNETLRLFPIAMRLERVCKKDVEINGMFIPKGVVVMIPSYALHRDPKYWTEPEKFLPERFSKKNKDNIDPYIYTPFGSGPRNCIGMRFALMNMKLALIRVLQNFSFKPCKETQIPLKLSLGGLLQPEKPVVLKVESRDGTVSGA
# Protocol: as §1
# CYP1A2 [4] = target: T3, CYP1A2 (Homo sapiens, UniProt P05177); assay: Inhibition of human liver microsomal CYP1A2; assay type: in vitro ADME; details: human liver microsomes, 10 μM test substance; read-out: Relative inhibition rate (%) CYP1A2
# T3 construct: from tissue; host or cells: human liver microsomes
# T3 sequence (P05177 1-516): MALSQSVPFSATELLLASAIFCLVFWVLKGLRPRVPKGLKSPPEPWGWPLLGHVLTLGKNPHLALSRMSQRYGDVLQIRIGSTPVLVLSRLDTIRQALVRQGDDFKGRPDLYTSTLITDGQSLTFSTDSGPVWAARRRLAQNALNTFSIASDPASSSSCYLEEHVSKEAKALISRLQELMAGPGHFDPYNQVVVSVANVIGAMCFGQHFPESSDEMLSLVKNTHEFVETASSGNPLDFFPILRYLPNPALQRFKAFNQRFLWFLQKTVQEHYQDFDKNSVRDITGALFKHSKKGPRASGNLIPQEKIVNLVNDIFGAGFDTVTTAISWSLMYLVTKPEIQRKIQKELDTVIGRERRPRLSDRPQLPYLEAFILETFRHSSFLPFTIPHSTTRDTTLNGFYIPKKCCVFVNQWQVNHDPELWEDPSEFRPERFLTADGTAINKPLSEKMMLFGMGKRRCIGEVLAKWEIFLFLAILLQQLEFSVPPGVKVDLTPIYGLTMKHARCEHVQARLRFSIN
# Protocol: as §1
# CYP2D6 = target: T4, CYP2D6 (Homo sapiens, UniProt P10635); assay: Inhibition of human liver microsomal CYP2D6; assay type: in vitro ADME; details: human liver microsomes, 10 μM test substance; read-out: Relative inhibition rate (%) CYP2D6
# T4 construct: from tissue; host or cells: human liver microsomes
# T4 sequence (P10635 whole entry): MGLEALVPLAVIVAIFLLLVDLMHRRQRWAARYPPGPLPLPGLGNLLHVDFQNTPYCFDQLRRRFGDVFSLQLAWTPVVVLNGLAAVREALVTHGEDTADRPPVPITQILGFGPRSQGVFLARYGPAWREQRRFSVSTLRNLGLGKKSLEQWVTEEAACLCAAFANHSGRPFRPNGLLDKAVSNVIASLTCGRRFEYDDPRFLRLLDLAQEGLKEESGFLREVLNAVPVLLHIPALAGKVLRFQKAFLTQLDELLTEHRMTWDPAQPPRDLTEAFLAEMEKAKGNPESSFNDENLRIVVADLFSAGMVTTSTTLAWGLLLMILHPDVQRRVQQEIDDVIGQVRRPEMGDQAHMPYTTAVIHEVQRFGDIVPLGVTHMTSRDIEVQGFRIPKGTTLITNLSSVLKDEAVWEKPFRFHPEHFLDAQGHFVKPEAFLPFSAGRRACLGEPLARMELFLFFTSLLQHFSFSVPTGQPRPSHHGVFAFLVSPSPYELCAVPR
# Protocol: as §1
# CYP1A2 [5] = assay: Induction of CYP1A2 in frozen human hepatocytes; assay type: in vitro ADME; details: 72 h induction, concentration and readout not stated
# Protocol: as §2, §3, §4
# hERG channel = target: T5, hERG channel (Homo sapiens, UniProt Q12809); assay: hERG channel current in HEK293 cells, automated patch clamp; assay type: cell-based; details: HEK-293 cells stably expressing hERG, whole-cell patch clamp, 0.3-30 μM
# T5 construct: expressed in transfected cells; host or cells: HEK-293 cells stably expressing hERG
# T5 sequence (Q12809 whole entry): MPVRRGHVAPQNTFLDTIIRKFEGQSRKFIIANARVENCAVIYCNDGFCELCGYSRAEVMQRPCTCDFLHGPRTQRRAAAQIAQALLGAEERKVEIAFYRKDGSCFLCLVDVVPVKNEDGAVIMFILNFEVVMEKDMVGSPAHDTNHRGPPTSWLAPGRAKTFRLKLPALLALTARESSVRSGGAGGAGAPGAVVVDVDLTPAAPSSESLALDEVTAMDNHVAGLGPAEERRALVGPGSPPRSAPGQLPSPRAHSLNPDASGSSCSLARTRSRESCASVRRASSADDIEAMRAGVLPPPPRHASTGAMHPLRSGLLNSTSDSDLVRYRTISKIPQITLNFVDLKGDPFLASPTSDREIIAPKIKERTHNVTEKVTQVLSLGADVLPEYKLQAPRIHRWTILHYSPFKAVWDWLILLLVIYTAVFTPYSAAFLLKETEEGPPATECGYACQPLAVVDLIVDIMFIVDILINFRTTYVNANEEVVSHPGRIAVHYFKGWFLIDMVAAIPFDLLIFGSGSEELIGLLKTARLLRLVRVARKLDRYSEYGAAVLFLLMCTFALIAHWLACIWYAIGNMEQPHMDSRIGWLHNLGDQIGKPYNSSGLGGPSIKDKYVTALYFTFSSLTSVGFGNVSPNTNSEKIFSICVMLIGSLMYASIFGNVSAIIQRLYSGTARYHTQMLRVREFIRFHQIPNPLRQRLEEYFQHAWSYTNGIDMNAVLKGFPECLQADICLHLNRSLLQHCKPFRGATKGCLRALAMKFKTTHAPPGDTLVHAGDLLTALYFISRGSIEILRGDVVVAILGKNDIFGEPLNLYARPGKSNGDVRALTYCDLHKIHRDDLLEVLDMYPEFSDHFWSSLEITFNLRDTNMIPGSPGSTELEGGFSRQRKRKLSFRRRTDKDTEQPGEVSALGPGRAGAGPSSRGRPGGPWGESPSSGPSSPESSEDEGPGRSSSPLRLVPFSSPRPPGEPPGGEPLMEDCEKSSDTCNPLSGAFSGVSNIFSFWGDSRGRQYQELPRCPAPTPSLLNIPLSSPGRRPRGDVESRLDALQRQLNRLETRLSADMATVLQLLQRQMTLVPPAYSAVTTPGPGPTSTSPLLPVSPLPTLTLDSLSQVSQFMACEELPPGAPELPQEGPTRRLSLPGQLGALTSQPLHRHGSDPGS
# Protocol: Test 2: Detection of the Effect of Compounds on hERG Channel Currents Stably Expressed in HEK293 Cells Using Automated Patch Clamp
# Experimental purpose: The concentration-effect relationship of the blocking effect of the compounds on hERG channels was determined using the patch clamp technique and HEK-293 cells stably expressing hERG channels to evaluate their risk of inhibitory effect on cardiac hERG potassium channels.
# Experimental method: hERG cells were clamped using the patch clamp technique to form a high-resistance seal and then the membrane was broken. The whole-cell recording mode was used to record the hERG current. Each drug concentration was set to be administered twice for at least 5 minutes. The test concentrations were 0.3 μM, 1 μM, 3 μM, 10 μM and 30 μM, and the changes of the test compounds on hERG current were observed.
# [6] = probe Midazolam, substrate Midazolam, read-out: Relative inhibition rate (%) CYP3A4 (Midazolam)
# [7] = probe Testosterone, substrate Testosterone, read-out: Relative inhibition rate (%) CYP3A4 (Testosterone)
inhibition at 10 µM (CYP2C19) [%],CYP3A4 Induction fold relative to blank control (CYP3A4 [1]),CYP3A4 Induction percentage relative to positive control (%) (CYP3A4 [1]),inhibition at 10 µM (CYP3A4 [3]; [6]) [%],inhibition at 10 µM (CYP3A4 [3]; [7]) [%],inhibition at 10 µM (CYP1A2 [4]) [%],inhibition at 10 µM (CYP2D6) [%],CYP1A2 Induction fold relative to blank control (CYP1A2 [5]),Structure (SMILES),CC50 at 24 h [2] [µM],IC50 (hERG channel) [µM]
9.7,1.3,0.9,23.9,11.5,2.7,31.4,0.4,C=CCCN(C)Cc1c[nH]c(=O)cc1-c1ccc2c(N[C@@](C)(CO)CCCC)nc(N)nc2c1 [Example 35],> 100,–
30.5,2.0,2.0,31.1,17.9,5.1,12.9,0.8,"CCCCN(C)Cc1c[nH]c(=O)cc1-c1cnc2c(N[C@@](C)(CO)CCCC)nc(N)nc2c1 [Example 28, (R)-4-(2-Amino-4-((1-hydroxy-2-methylhexan-2-yl)amino)pyrido[3,2-d]pyrimidin-7-yl)-5-((butyl(methyl)amino)methyl)pyridin-2(1H)-one]",> 100,> 30
10.5,1.4,1.5,15.3,18,-4.1,9.5,0.6,CCCC[C@](C)(CO)Nc1nc(N)nc2cc(-c3cc(=O)[nH]cc3CN(C)CCOC)cnc12 [Example 21],> 100,> 30
9.3,0.6,−1.5,9.6,6.3,-10.5,18.1,0.7,CCCC[C@](C)(CO)Nc1nc(N)nc2cc(-c3cc(=O)n(C)cc3CN3CCCCC3)ccc12 [Example 8],98.3,> 30
